Experimental findings from patent US9585892B2, “Solid forms comprising N-(5-tert-butyl-isoxazol-3-yl)-N′-{4-[7-(2-morpholin-4-yl-ethoxy)imidazo[2,1-b][1,3]benzothiazol-2-yl]phenyl}urea, compositions thereof, and uses therewith” (AMBIT BIOSCIENCES CORPORATION, priority 2007, dated 2017) are described below.

Molecules are shown by their SMILES. Entries after “also recorded” stand apart in the source; their conditions may differ. Counter-ions that a name gives are not always drawn.

A short description of this data set: Stress experiments (temperature or relative humidity, XRPD after stress). It is filed as physicochemical. As for the experimental part: Stress Experiments. Solids were stressed under different temperature or relative humidity (RH) environments for a measured time period. Specific RH values were achieved by placing the sample inside sealed chambers containing saturated salt solutions. The salt solutions were selected and prepared following an ASTM standard procedure. Samples were analyzed by XRPD immediately after removal from the stress environment.
X-ray powder diffraction analyses were performed on an Inel XRG-3000 diffractometer, equipped with a curved position-sensitive detector with a […] of 120°. Real time data was collected using Cu Kα radiation starting at approximately 4 ° 2θ at a resolution of 0.03 ° 2θ. The tube voltage and amperage were set to 40 kV and 30 mA, respectively. […] Samples were prepared for analysis by packing them into thin-walled glass capillaries. Each capillary was mounted onto a goniometer head that is motorized to permit spinning of the capillary during data acquisition. Instrument calibration was performed daily using a silicon reference standard.

The mark [1] stands for this setting: 75% RH, ambient temperature, 3 days.
Setting [2] is: 75% RH, ambient temperature, 3 days, listed as Amorphous.
Where [3] appears, read: 75% RH, ambient temperature, 5 days.

For the compound `CC(C)(C)c1cc(NC(=O)Nc2ccc(-c3cn4c(n3)sc3cc(OCCN5CCOCC5)ccc34)cc2)no1` [Form A of the napsylate salt of Compound B1] [N-(5-tert-butyl-isoxazol-3-yl)-N′-{4-[7-(2-morpholin-4-yl-ethoxy)imidazo[2,1-b][1,3]benzothiazol-2-yl]phenyl}urea], the deliquescence upon storage entry (75% RH, 7 days) is listed as “does not deliquesce; also recorded: did not deliquesce”.

Take `CC(C)(C)c1cc(NC(=O)Nc2ccc(-c3cn4c(n3)sc3cc(OCCN5CCOCC5)ccc34)cc2)no1` [N-(5-tert-butyl-isoxazol-3-yl)-N′-{4-[7-(2-morpholin-4-yl-ethoxy)imidazo[2,1-b][1,3]benzothiazol-2-yl]phenyl}urea]: the “XRPD Result after stress” value under setting [1] is “remains unchanged”; the “XRPD Result after stress” value under setting [2] is “Amorphous”; the “XRPD Result after stress” value (Oven: 40° C., 8 days) is “remains unchanged”; the “XRPD Result after stress” value (Oven: 40° C., 8 days, listed as Amorphous) is recorded as “Amorphous”. In addition, the deliquescence upon storage entry under setting [1] is “does not deliquesce; also recorded: did not deliquesce”. Also, the “water corresponding to the weight gain” value under setting [1] is “about 4.3 molar equivalents of water”. For the same compound, the weight gain entry reads like this: under setting [1], “about 12.3%”; under setting [2], “white solid, irregular particles, 11.8%”.

Turning to `CC(C)(C)c1cc(NC(=O)Nc2ccc(-c3cn4c(n3)sc3cc(OCCN5CCOCC5)ccc34)cc2)no1` [Form A of the HBr salt of Compound B1, N-(5-tert-butyl-isoxazol-3-yl)-N′-{4-[7-(2-morpholin-4-yl-ethoxy)imidazo[2,1-b][1,3]benzothiazol-2-yl]phenyl}urea], the deliquescence upon storage entry (75% RH, 4 days) is recorded as “does not deliquesce; also recorded: did not deliquesce”.

On to `CC(C)(C)c1cc(NC(=O)Nc2ccc(-c3cn4c(n3)sc3cc(OCCN5CCOCC5)ccc34)cc2)no1` [Form B of the mesylate salt of Compound B1] [N-(5-tert-butyl-isoxazol-3-yl)-N′-{4-[7-(2-morpholin-4-yl-ethoxy)imidazo[2,1-b][1,3]benzothiazol-2-yl]phenyl}urea], for which the deliquescence upon storage result (75% RH, 4 days) is listed as “does not deliquesce; also recorded: did not deliquesce”.

With `CC(C)(C)c1cc(NC(=O)Nc2ccc(-c3cn4c(n3)sc3cc(OCCN5CCOCC5)ccc34)cc2)no1` [Form C of the sulfate salt of Compound B1] [N-(5-tert-butyl-isoxazol-3-yl)-N′-{4-[7-(2-morpholin-4-yl-ethoxy)imidazo[2,1-b][1,3]benzothiazol-2-yl]phenyl}urea], the deliquescence upon storage result (75% RH, 7 days) is given as “does not deliquesce; also recorded: did not deliquesce”.

Consider `CC(C)(C)c1cc(NC(=O)Nc2ccc(-c3cn4c(n3)sc3cc(OCCN5CCOCC5)ccc34)cc2)no1` [Form A of the edisylate salt of Compound B1] [N-(5-tert-butyl-isoxazol-3-yl)-N′-{4-[7-(2-morpholin-4-yl-ethoxy)imidazo[2,1-b][1,3]benzothiazol-2-yl]phenyl}urea], for which, where the note is “75% RH, 7 days”, the deliquescence upon storage result is reported as “does not deliquesce; also recorded: did not deliquesce”.

`CC(C)(C)c1cc(NC(=O)Nc2ccc(-c3cn4c(n3)sc3cc(OCCN5CCOCC5)ccc34)cc2)no1` [Form A of the mesylate salt of Compound B1] [N-(5-tert-butyl-isoxazol-3-yl)-N′-{4-[7-(2-morpholin-4-yl-ethoxy)imidazo[2,1-b][1,3]benzothiazol-2-yl]phenyl}urea]: the deliquescence upon storage result under setting [3] is reported as “does not deliquesce; also recorded: did not deliquesce”.

In the case of `CC(C)(C)c1cc(NC(=O)Nc2ccc(-c3cn4c(n3)sc3cc(OCCN5CCOCC5)ccc34)cc2)no1` [Form B of the besylate salt of Compound B1] [N-(5-tert-butyl-isoxazol-3-yl)-N′-{4-[7-(2-morpholin-4-yl-ethoxy)imidazo[2,1-b][1,3]benzothiazol-2-yl]phenyl}urea], the deliquescence upon storage entry (75% RH, 7 days) is “does not deliquesce; also recorded: did not deliquesce”.

As to `CC(C)(C)c1cc(NC(=O)Nc2ccc(-c3cn4c(n3)sc3cc(OCCN5CCOCC5)ccc34)cc2)no1` [Form F of the HCl salt of Compound B1, N-(5-tert-butyl-isoxazol-3-yl)-N′-{4-[7-(2-morpholin-4-yl-ethoxy)imidazo[2,1-b][1,3]benzothiazol-2-yl]phenyl}urea], the “XRPD Result after stress” value (Oven: 80° C., 3 days) was “substantially disordered, but which retains some Form F content” and the “XRPD Result after stress” value (Oven: 80° C., 3 days, listed as F) was “Disordered + F”.

Consider `CC(C)(C)c1cc(NC(=O)Nc2ccc(-c3cn4c(n3)sc3cc(OCCN5CCOCC5)ccc34)cc2)no1` [Form D of the HCl salt of Compound B1, N-(5-tert-butyl-isoxazol-3-yl)-N′-{4-[7-(2-morpholin-4-yl-ethoxy)imidazo[2,1-b][1,3]benzothiazol-2-yl]phenyl}urea], for which the “XRPD Result after stress” value (Oven: 80° C., 3 days) is recorded as “Form D”.

Turning to `CC(C)(C)c1cc(NC(=O)Nc2ccc(-c3cn4c(n3)sc3cc(OCCN5CCOCC5)ccc34)cc2)no1` [Form B of the tosylate salt of Compound B1] [N-(5-tert-butyl-isoxazol-3-yl)-N′-{4-[7-(2-morpholin-4-yl-ethoxy)imidazo[2,1-b][1,3]benzothiazol-2-yl]phenyl}urea], the deliquescence upon storage entry under setting [3] is “does not deliquesce; also recorded: did not deliquesce”.

Take `CC(C)(C)c1cc(NC(=O)Nc2ccc(-c3cn4c(n3)sc3cc(OCCN5CCOCC5)ccc34)cc2)no1` [Form B of the napsylate salt of Compound B1] [N-(5-tert-butyl-isoxazol-3-yl)-N′-{4-[7-(2-morpholin-4-yl-ethoxy)imidazo[2,1-b][1,3]benzothiazol-2-yl]phenyl}urea]: the deliquescence upon storage result (75% RH, 7 days) is listed as “does not deliquesce; also recorded: did not deliquesce”.

As for `CC(C)(C)c1cc(NC(=O)Nc2ccc(-c3cn4c(n3)sc3cc(OCCN5CCOCC5)ccc34)cc2)no1` [Form B of the esylate salt of Compound B1] [N-(5-tert-butyl-isoxazol-3-yl)-N′-{4-[7-(2-morpholin-4-yl-ethoxy)imidazo[2,1-b][1,3]benzothiazol-2-yl]phenyl}urea], under “75% RH, 7 days”, the deliquescence upon storage result is “does not deliquesce; also recorded: did not deliquesce”.
